Experimental data as given in patent EP4818174A1, “ERIBULIN DERIVATIVE AND ANTIBODY-DRUG CONJUGATE THEREOF, AND MEDICAL USE THEREOF” ([…] CO., LTD., priority 2024, dated 2025).
Counter-ions that a name gives are not always drawn. Like-named read-outs stand apart in the source and are kept apart here.

Experiments:
Assay in all cases: Inhibitory activity on other cancer cell lines (similar method)
Format in all cases: cell-based
[1] = test system: 22Rv1; details: Homo sapiens
Method: (§1) On the day of the test, the cells were digested with 0.25% trypsin (Gibco, 25200-072), filtered with a sieve with a pore size of 40 µm, diluted with the corresponding medium until a cell density reached 1 × 10^4 cells/mL, and inoculated onto a 96-well white cell culture plate (Beyotime, FCP968), 100 µL of cells were added per well, the culture plate was put in a 37°C incubator (Thermo 311) containing 5% CO2, and the cells were further incubated for 24 hours. On Day 2, to-be-tested samples were prepared into a stock solution at a final concentration of […] with DMSO (Sigma, D1650), then diluted with the corresponding medium until a final concentration reached 200 nM, and then subjected to four-fold serial dilutions, to prepare solutions at a total of 9 concentrations. 100 µL of the diluted sample was added to a 96-well plate, the plate was put in a 37°C incubator containing 5% CO2, and the cells were further incubated for 144 hours. The cell culture plate was removed, 100 µL of cell viability assay agent (CellTiter-Glo® Luminescent Cell Viability Assay, Promega, G7571) was added to each well, and the reaction solution allowed to react in the dark for 5 minutes at room temperature. Luminescence values were read by a microplate reader (TECAN SPARK) and data were processed with Graphpad Prism 7 software.
(§2) Table 2: Inhibitory IC50 Values of Compounds PE-21EK and PE-AM4 in the Present Invention Against Other Cancer Cell Lines

[2] = test system: A549; details: Homo sapiens
Method: as §1, §2

[3] = test system: DU145; details: Homo sapiens
Method: as §1, §2

[4] = test system: H1975; details: Homo sapiens
Method: as §1, §2

[5] = test system: HCC1937; details: Homo sapiens
Method: as §1, §2

[6] = test system: HS578T; details: Homo sapiens, Hs-578T, read-out: Inhibitory IC50 values
Method: as §1, §2

[7] = test system: IGROV-1; details: Homo sapiens
Method: as §1, §2

[8] = test system: Lncap cell; details: Homo sapiens, read-out: Inhibitory IC50 values
Method: as §1, §2

[9] = test system: MDA-MB-453; details: Homo sapiens
Method: as §1, §2

[10] = test system: MDAMB231; details: Homo sapiens
Method: as §1, §2

[11] = test system: MIA PaCa-2; details: Homo sapiens
Method: as §1, §2

[12] = test system: NCI-H1650; details: Homo sapiens
Method: as §1, §2

[13] = test system: NSCLC; details: read-out: Inhibitory IC50 values
Method: as §1, §2

[14] = test system: Renal cancer; details: read-out: Inhibitory IC50 values
Method: as §1, §2

[15] = test system: SW620; details: Homo sapiens
Method: as §1, §2

[16] = 22Rv1, cell source Prostate cancer, unit inferred, read-out: Inhibitory IC50 values
[17] = A549, cell source NSCLC, unit inferred, read-out: Inhibitory IC50 values
[18] = DU-145, DU145, cell source Prostate cancer, unit inferred, read-out: Inhibitory IC50 values
[19] = NCI-H1975, H1975, cell source NSCLC, unit inferred, read-out: Inhibitory IC50 values
[20] = HCC1937, cell source Breast cancer, unit inferred, read-out: Inhibitory IC50 values
[21] = HS578T, cell source Breast cancer, unit inferred
[22] = IGROV-1, cell source Ovarian cancer, unit inferred, read-out: Inhibitory IC50 values
[23] = Lncap cell, cell source Prostate cancer, unit inferred
[24] = MDA-MB-453, cell source Breast cancer, unit inferred, read-out: Inhibitory IC50 values
[25] = MDA-MB-231, MDAMB231, cell source Breast cancer, unit inferred, read-out: Inhibitory IC50 values
[26] = MIA PaCa-2, cell source Pancreatic cancer, unit inferred, read-out: Inhibitory IC50 values
[27] = NCI-H1650, cell source NSCLC, unit inferred, read-out: Inhibitory IC50 values
[28] = SW-620, SW620, cell source Colon cancer, unit inferred, read-out: Inhibitory IC50 values

Row | SMILES | IC50 [1, 16] | IC50 [2, 17] | IC50 [3, 18] | IC50 [4, 19] | IC50 [5, 20] | IC50 [6, 21] | IC50 [7, 22] | IC50 [8, 23] | IC50 [9, 24] | IC50 [10, 25] | IC50 [11, 26] | IC50 [12, 27] | IC50 [13] | IC50 [14] | IC50 [15, 28] | further results
1 | C=C1C[C@@H]2CC[C@@]34C[C@H]5O[C@H]6[C@@H](O3)[C@H]3O[C@H](CC[C@@H]3O[C@H]6[C@H]5O4)CC(=O)C[C@@H]3[C@@H](OC)[C@@H](CC(=O)CNC(=O)OCCCCCO)O[C@H]3C[C@H]3O[C@@H](CC[C@@H]1O2)C[C@@H](C)C3=C [PE-21EK] | 0.125 nM | 0.194 nM | 0.501 nM | 0.0708 nM | 0.104 nM | 0.0207 nM | 0.289 nM | 0.123 nM | 0.0846 nM | 0.218 nM | 0.158 nM | 0.262 nM | 0.184 nM | 0.102 nM | 0.0221 nM | –
2 | C=C1C[C@@H]2CC[C@@]34C[C@H]5O[C@H]6[C@@H](O3)[C@H]3O[C@H](CC[C@@H]3O[C@H]6[C@H]5O4)CC(=O)C[C@@H]3[C@@H](OC)[C@@H](CC(=O)N4CC(CO)C4)O[C@H]3C[C@H]3O[C@@H](CC[C@@H]1O2)C[C@@H](C)C3=C [PE-AM4] | 0.741 nM | 4.92 nM | 0.686 nM | 0.728 nM | 0.647 nM | 0.276 nM | 0.623 nM | 0.457 nM | 0.151 nM | 1.08 nM | 1.23 nM | 1.56 nM | 3.13 nM | 3.47 nM | 1.3 nM | –
3 | C=C1C[C@@H]2CC[C@@]34C[C@H]5O[C@H]6[C@@H](O3)[C@H]3O[C@H](CC[C@@H]3O[C@H]6[C@H]5O4)CC(=O)C[C@@H]3[C@@H](OC)[C@@H](C[C@H](O)CN)O[C@H]3C[C@H]3O[C@@H](CC[C@@H]1O2)C[C@@H](C)C3=C [PE-E, eribulin mesylate, reference compound] | – | – | – | – | – | – | – | – | – | – | – | – | 0.649 nM | 0.755 nM | – | IC50 ([1]; 22Rv1, read-out: Inhibitory IC50 values): 0.618 nM; IC50 ([2]; A549, read-out: Inhibitory IC50 values): 4.17 nM; IC50 ([3]; DU-145, read-out: Inhibitory IC50 values): 1.68 nM; IC50 ([4]; NCI-H1975, read-out: Inhibitory IC50 values): 0.505 nM; IC50 ([5]; HCC1937, read-out: Inhibitory IC50 values): 2.85 nM; IC50 [6]: 0.188 nM; IC50 ([7]; IGROV-1, read-out: Inhibitory IC50 values): 0.439 nM; IC50 ([8]; LNCaP): 1.3 nM; IC50 ([9]; MDA-MB-453, read-out: Inhibitory IC50 values): 19.3 nM; IC50 ([10]; MDA-MB-231, read-out: Inhibitory IC50 values): 0.805 nM; IC50 ([11]; MIA PaCa-2, read-out: Inhibitory IC50 values): 0.668 nM; IC50 ([12]; NCI-H1650, read-out: Inhibitory IC50 values): 2.35 nM; IC50 ([15]; SW-620, read-out: Inhibitory IC50 values): 0.419 nM
